What was measured:
Assay type in all cases: in vivo
[1] = system: Setaria faberi (SETFA); assay: Pre-emergence herbicidal activity, glasshouse pot test; conditions: 480 h, rate 250 g/ha, evaluated 20 days later, 100=total damage to plant, 0=no damage to plant
Experimental: (§1) Monocotyledonous and dicotyledonous test plants were sown in standard soil in pots. After cultivation for one day (pre-emergence) or after 10 days cultivation (post-emergence) under controlled conditions in a glasshouse, the plants were sprayed with an aqueous spray solution derived from the formulation of the technical active ingredient in 0.6 ml acetone and 45 ml formulation solution containing 10.6% Emulsogen EL (Registry number 61791-12-6), 42.2% N-methylpyrrolidone, 42.2% dipropylene glycol monomethyl ether (Registry number 34590-94-8) and 0.2% X-77 (Registry number 11097-66-8). The test plants were then grown in a greenhouse under optimum conditions until, 15 days later for post-emergence and 20 days for pre-emergence, the test was evaluated (100=total damage to plant; 0=no damage to plant). Test Plants: Alopecurus myosuroides (ALOMY), Avena fatua (AVEFA), Lolium perenne (LOLPE), Setaria faberi (SETFA), Digitaria sanguinalis (DIGSA), Echinochloa crus-galli (ECHCG)

[2] = system: Lolium perenne (LOLPE); assay: as above; conditions: 480 h, rate 250 g/ha, evaluated 20 days later, 100=total damage to plant, 0=no damage to plant
Experimental: as §1

[3] = system: Digitaria sanguinalis (DIGSA); assay: as above; conditions: 480 h, rate 250 g/ha, evaluated 20 days later, 100=total damage to plant, 0=no damage to plant
Experimental: as §1

[4] = system: Avena fatua (AVEFA); assay: as above; conditions: 480 h, rate 250 g/ha, evaluated 20 days later, 100=total damage to plant, 0=no damage to plant
Experimental: as §1

[5] = system: Echinochloa crus-galli (ECHCG); assay: as above; conditions: 480 h, rate 250 g/ha, evaluated 20 days later, 100=total damage to plant, 0=no damage to plant
Experimental: as §1

[6] = system: Alopecurus myosuroides (ALOMY); assay: as above; conditions: 480 h, rate 250 g/ha, evaluated 20 days later, 100=total damage to plant, 0=no damage to plant
Experimental: as §1

[7] = system: Setaria faberi (SETFA); assay: Post-emergence herbicidal activity, glasshouse pot test; conditions: 360 h, rate 125 g/ha, evaluated 15 days later, 100=total damage to plant, 0=no damage to plant
Experimental: as §1

[8] = system: Lolium perenne (LOLPE); assay: as above; conditions: 360 h, rate 125 g/ha, evaluated 15 days later, 100=total damage to plant, 0=no damage to plant
Experimental: as §1

[9] = system: Digitaria sanguinalis (DIGSA); assay: as above; conditions: 360 h, rate 125 g/ha, evaluated 15 days later, 100=total damage to plant, 0=no damage to plant
Experimental: as §1

[10] = system: Avena fatua (AVEFA); assay: as above; conditions: 360 h, rate 125 g/ha, evaluated 15 days later, 100=total damage to plant, 0=no damage to plant
Experimental: as §1

[11] = system: Echinochloa crus-galli (ECHCG); assay: as above; conditions: 360 h, rate 125 g/ha, evaluated 15 days later, 100=total damage to plant, 0=no damage to plant
Experimental: as §1

[12] = system: Alopecurus myosuroides (ALOMY); assay: as above; conditions: 360 h, rate 125 g/ha, evaluated 15 days later, 100=total damage to plant, 0=no damage to plant
Experimental: as §1

Compound	pest or weed control at 250 g/ha [1]	pest or weed control at 250 g/ha [2]	pest or weed control at 250 g/ha [3]	pest or weed control at 250 g/ha [4]	pest or weed control at 250 g/ha [5]	pest or weed control at 250 g/ha [6]	pest or weed control at 125 g/ha [7]	pest or weed control at 125 g/ha [8]	pest or weed control at 125 g/ha [9]	pest or weed control at 125 g/ha [10]	pest or weed control at 125 g/ha [11]	pest or weed control at 125 g/ha [12]
Cc1cc(-c2ccccc2)cc(C)c1C1=C(OC(=O)C(C)(C)C)[C@H]2[C@@H](C1=O)[C@@H]1CC[C@H]2O1 (racemic) [Compound P1, (1RS,2SR,6RS,7SR)-4-(3,5-dimethylbiphenyl-4-yl)-5-oxo-10-oxa-tricyclo[5.2.1.0^2,6]dec-3-en-3-yl 2,2-dimethylpropionate]	90%	100%	100%	70%	100%	100%	80%	90%	80%	50%	100%	100%
CCc1ccc(-c2ccc(Cl)cc2)cc1C1=C(O)[C@H]2[C@@H](C1=O)[C@@H]1C=C[C@H]2O1 (racemic) [Compound T4, (1RS,2SR,6RS,7SR)-4-(4′-chloro-4-ethylbiphen-3-yl)-10-oxatricyclo[5.2.1.0^2,6]dec-8-ene-3,5-dione]	100%	60%	100%	50%	100%	60%	100%	80%	100%	60%	100%	80%
Cc1cc(-c2ccccc2)cc(C)c1C1C(=O)[C@@H]2[C@H](C1=O)[C@H]1CC[C@@H]2O1 (mixture of isomers) [Compound T6, (1RS,2SR,6RS,7SR)-4-(3,5-dimethylbiphen-4-yl)-10-oxa-tricyclo[5.2.1.0^2,6]decane-3,5-dione]	100%	70%	80%	0%	100%	50%	60%	50%	30%	30%	70%	80%
CCc1ccc(-c2ccc(Cl)cc2Cl)cc1C1=C(O)[C@H]2[C@@H](C1=O)[C@@H]1CC[C@H]2O1 (racemic) [Compound T11, (1RS,2SR,6RS,7SR)-4-(2′,4′-dichloro-4-ethylbiphen-3-yl)-10-oxa-tricyclo[5.2.1.0^2,6]decane-3,5-dione]	100%	80%	90%	60%	100%	70%	100%	50%	90%	90%	100%	100%
CCc1ccc(-c2ccc(Cl)cc2F)cc1C1=C(O)[C@H]2[C@@H](C1=O)[C@]1(C)CC[C@@]2(C)O1 (racemic) [Compound T23, (1RS,2SR,6RS,7SR)-4-(4′-chloro-4-ethyl-2′-fluorobiphen-3-yl)-1,7-dimethyl-10-oxatricyclo[5.2.1.0^2,6]decane-3,5-dione]	100%	70%	100%	60%	100%	40%	90%	70%	90%	100%	100%	100%
